Experimental data as given in the Kinase Knowledgebase extract (Sharma et al. 2016).

Experiments:
MAPK14 (human) = MAPK14 (human) (UniProt Q16539); assay: p38 Enzyme Inhibition Assay
[1] = biological target: MAPK14 (human), Q16539 [p38(A157V) Mutant Enzyme Inhibition Assay]; assay: p38(A157V) Mutant Enzyme Inhibition Assay
[2] = biological target: MAPK14 (human), Q16539 [p38(M109A) Mutant Enzyme Inhibition Assay]; assay: p38(M109A) Mutant Enzyme Inhibition Assay
Chain of MAPK14 (human), Q16539 [p38(M109A) Mutant Enzyme Inhibition Assay] (Q16539 whole entry, looked up, stated change not applied): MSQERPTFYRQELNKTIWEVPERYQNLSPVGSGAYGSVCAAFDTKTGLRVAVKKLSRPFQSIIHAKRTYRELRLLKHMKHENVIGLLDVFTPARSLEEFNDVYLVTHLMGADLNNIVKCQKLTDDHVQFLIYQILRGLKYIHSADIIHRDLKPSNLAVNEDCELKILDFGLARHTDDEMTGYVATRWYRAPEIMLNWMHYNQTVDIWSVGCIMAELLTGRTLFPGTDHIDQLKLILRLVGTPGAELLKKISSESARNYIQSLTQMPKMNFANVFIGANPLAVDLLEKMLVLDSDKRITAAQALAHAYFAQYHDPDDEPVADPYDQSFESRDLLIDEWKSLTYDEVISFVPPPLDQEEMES

Chain of MAPK14 (human) (Q16539 whole entry, looked up): as the sequence (Q16539 whole entry, looked up, stated change not applied) above
Chain of MAPK14 (human), Q16539 [p38(A157V) Mutant Enzyme Inhibition Assay] (Q16539 whole entry, looked up, stated change not applied): as above

`C[S+]([O-])c1ccc(-c2cc(-c3ccc(F)c(F)c3)c(-c3ccncc3)[nH]2)cc1` (configuration not stated) showed an IC50 (MAPK14 (human)) of 0.012 µM, an IC50 [1] of 0.45 µM and an IC50 [2] of 0.037 µM.

With `C[S+]([O-])c1ccc(-c2cc(-c3ccc(F)cc3)c(-c3ccncc3)[nH]2)cc1` (configuration not stated) the IC50 (MAPK14 (human)) was 0.004 µM, the IC50 [1] was 0.058 µM and the IC50 [2] was 0.0075 µM.

In the case of `Cn1c(C2CCNCC2)nc(-c2cccc(C(F)(F)F)c2)c1-c1ccncc1`, the IC50 (MAPK14 (human)) is reported as 0.007 µM, the IC50 [1] is reported as under 0.0005 µM and the IC50 [2] is reported as 0.046 µM.

For `C[C@H](Nc1cc(-c2nc(C3CCCNC3)n(C)c2-c2cccc(C(F)(F)F)c2)ccn1)c1ccccc1` (some centres not stated), the IC50 (MAPK14 (human)) was 0.094 µM, the IC50 [1] was 0.013 µM and the IC50 [2] was 0.712 µM.
